Data on two compounds can be found in patent publication US12365850B2, “Water-miscible functional fluid, undiluted stock of water-miscible functional fluid, sterilizer for water-miscible functional fluid, and method of sterilizing water-miscible function fluid” (priority 2020, dated 2025).

In this assay the test system is bacteria. Nature of the assay: Photosterilization test of neutral photosensitizers (bacterial count after light irradiation). Format: cell-based.
The mark [1] stands for this setting: wavelength 450 nm, irradiance 100 μW/cm2, light intensity 10 J/cm2, photosensitizer 50 ppm (Lumichrome 20 ppm).
The mark [2] stands for this setting: wavelength 450 nm, irradiance 100 μW/cm2, light intensity 30 J/cm2, photosensitizer 50 ppm (Lumichrome 20 ppm).
Where [3] appears, read: wavelength 450 nm, irradiance 100 μW/cm2, light intensity 50 J/cm2, photosensitizer 50 ppm (Lumichrome 20 ppm).
Setting [4] is: wavelength 450 nm, irradiance 100 μW/cm2, light intensity 100 J/cm2, photosensitizer 50 ppm (Lumichrome 20 ppm).
Where [5] appears, read: wavelength 450 nm, irradiance 100 μW/cm2, light intensity 200 J/cm2, photosensitizer 50 ppm (Lumichrome 20 ppm).
Setting [6] is: wavelength 450 nm, irradiance 100 μW/cm2, light intensity 400 J/cm2, photosensitizer 50 ppm (Lumichrome 20 ppm).

The structures appear in SMILES notation.

With `Cc1cc2nc3c(=O)[nH]c(=O)nc-3n(C[C@H](O)[C@H](O)[C@H](O)CO)c2cc1C` [Example 1, Riboflavin], the “change in the bacterial count due to the light irradiation” value (result in words) was “a decrease in the bacterial count was found”. Besides, the Bacterial count result by setting is: (wavelength 275 nm, irradiance 100 μW/cm2, light intensity 10 J/cm2, photosensitizer 50 ppm) “++ (bacterial count was 1.0×10^6 CFU/ml to 1.4×10^7 CFU/ml)”; (wavelength 275 nm, irradiance 100 μW/cm2, light intensity 30 J/cm2, photosensitizer 50 ppm) “++ (bacterial count was 1.0×10^6 CFU/ml to 1.4×10^7 CFU/ml)”; (wavelength 275 nm, irradiance 100 μW/cm2, light intensity 50 J/cm2, photosensitizer 50 ppm) “+ (bacterial count was at least 1.0×10^2 CFU/ml and less than 1.0×10^6 CFU/ml)”; (wavelength 275 nm, irradiance 100 μW/cm2, light intensity 100 J/cm2, photosensitizer 50 ppm) “+ (bacterial count was at least 1.0×10^2 CFU/ml and less than 1.0×10^6 CFU/ml)”; (wavelength 275 nm, irradiance 100 μW/cm2, light intensity 200 J/cm2, photosensitizer 50 ppm) “+ (bacterial count was at least 1.0×10^2 CFU/ml and less than 1.0×10^6 CFU/ml)”; (wavelength 275 nm, irradiance 100 μW/cm2, light intensity 400 J/cm2, photosensitizer 50 ppm) “− (bacterial count was at least 0 and less than 1.0×10^2 CFU/mil)”. Also, the Bacterial count entry runs as follows: (wavelength 380 nm, irradiance 1200 μW/cm2, light intensity 10 J/cm2, photosensitizer 50 ppm) “++ (bacterial count was 1.0×10^6 CFU/ml to 1.4×10^7 CFU/ml)”; (wavelength 380 nm, irradiance 1200 μW/cm2, light intensity 30 J/cm2, photosensitizer 50 ppm) “++ (bacterial count was 1.0×10^6 CFU/ml to 1.4×10^7 CFU/ml)”; (wavelength 380 nm, irradiance 1200 μW/cm2, light intensity 50 J/cm2, photosensitizer 50 ppm) “++ (bacterial count was 1.0×10^6 CFU/ml to 1.4×10^7 CFU/ml)”; (wavelength 380 nm, irradiance 1200 μW/cm2, light intensity 100 J/cm2, photosensitizer 50 ppm) “+ (bacterial count was at least 1.0×10^2 CFU/ml and less than 1.0×10^6 CFU/ml)”; (wavelength 380 nm, irradiance 1200 μW/cm2, light intensity 200 J/cm2, photosensitizer 50 ppm) “+ (bacterial count was at least 1.0×10^2 CFU/ml and less than 1.0×10^6 CFU/ml)”; (wavelength 380 nm, irradiance 1200 μW/cm2, light intensity 400 J/cm2, photosensitizer 50 ppm) “+ (bacterial count was at least 1.0×10^2 CFU/ml and less than 1.0×10^6 CFU/ml)”. The Bacterial count entry under setting [1] is “++ (bacterial count was 1.0×10^6 CFU/ml to 1.4×10^7 CFU/ml)”; the Bacterial count entry under setting [2] was “+ (bacterial count was at least 1.0×10^2 CFU/ml and less than 1.0×10^6 CFU/ml)”; the Bacterial count result under setting [3] is “+ (bacterial count was at least 1.0×10^2 CFU/ml and less than 1.0×10^6 CFU/ml)”; the Bacterial count entry under setting [4] was “+ (bacterial count was at least 1.0×10^2 CFU/ml and less than 1.0×10^6 CFU/ml)”; the Bacterial count entry under setting [5] is “− (bacterial count was at least 0 and less than 1.0×10^2 CFU/mil)”; the Bacterial count result under setting [6] was “− (bacterial count was at least 0 and less than 1.0×10^2 CFU/mil)”. Besides, the Bacterial count entry is, setting by setting: (wavelength 500 nm, irradiance 100 μW/cm2, light intensity 10 J/cm2, photosensitizer 50 ppm) “++ (bacterial count was 1.0×10^6 CFU/ml to 1.4×10^7 CFU/ml)”; (wavelength 500 nm, irradiance 100 μW/cm2, light intensity 30 J/cm2, photosensitizer 50 ppm) “++ (bacterial count was 1.0×10^6 CFU/ml to 1.4×10^7 CFU/ml)”; (wavelength 500 nm, irradiance 100 μW/cm2, light intensity 50 J/cm2, photosensitizer 50 ppm) “++ (bacterial count was 1.0×10^6 CFU/ml to 1.4×10^7 CFU/ml)”; (wavelength 500 nm, irradiance 100 μW/cm2, light intensity 100 J/cm2, photosensitizer 50 ppm) “++ (bacterial count was 1.0×10^6 CFU/ml to 1.4×10^7 CFU/ml)”; (wavelength 500 nm, irradiance 100 μW/cm2, light intensity 200 J/cm2, photosensitizer 50 ppm) “+ (bacterial count was at least 1.0×10^2 CFU/ml and less than 1.0×10^6 CFU/ml)”; (wavelength 500 nm, irradiance 100 μW/cm2, light intensity 400 J/cm2, photosensitizer 50 ppm) “+ (bacterial count was at least 1.0×10^2 CFU/ml and less than 1.0×10^6 CFU/ml)”.

As to `Cc1cc2nc3c(=O)[nH]c(=O)nc-3n(CC(O)C(O)C(O)COP(=O)([O-])O)c2cc1C.[Na+]` (stereo not shown) [Example 6, Riboflavin sodium phosphate], the Bacterial count result runs as follows: under setting [1], “++ (bacterial count was 1.0×10^6 CFU/ml to 1.4×10^7 CFU/ml)”; under setting [2], “+ (bacterial count was at least 1.0×10^2 CFU/ml and less than 1.0×10^6 CFU/ml)”; under setting [3], “+ (bacterial count was at least 1.0×10^2 CFU/ml and less than 1.0×10^6 CFU/ml)”; under setting [4], “+ (bacterial count was at least 1.0×10^2 CFU/ml and less than 1.0×10^6 CFU/ml)”; under setting [5], “− (bacterial count was at least 0 and less than 1.0×10^2 CFU/mil)”; under setting [6], “− (bacterial count was at least 0 and less than 1.0×10^2 CFU/mil)”.
